Test results as given in ChEMBL document CHEMBL3045561, “Feeding deterrents from Zanthoxylum schinifolium against two stored-product insects” (J Agric Food Chem, 2009).

How the values were obtained:
[1] = test system: Sitophilus zeamais; assay: Feeding deterrent activity against adult Sitophilus zeamais on compound pretreated wheat flour disks assessed as mortality at 100 ppm after 3 days by flour disk bioassay (reference value: 0%); type: functional
[2] = test system: Sitophilus zeamais; assay: Feeding deterrent activity against adult Sitophilus zeamais on compound pretreated wheat flour disks assessed as mortality at 10 ppm after 3 days by flour disk bioassay (reference value: 0%); type: functional
[3] = test system: Tribolium castaneum; assay: Feeding deterrent activity against adult Tribolium castaneum (red flour beetle) on compound pre-treated wheat flour disks assessed as food utilization rate at 30 ppm after 3 days by flour disk bioassay (reference value: 20.59 +/-1.47%); type: functional
[4] = test system: Sitophilus zeamais; assay: Feeding deterrent activity against adult Sitophilus zeamais on compound pretreated wheat flour disks assessed as relative food consumption rate at 10 ppm after 3 days by flour disk bioassay (reference value: 122.72 +/-4.32 ug/mg/day); type: functional
[5] = test system: Sitophilus zeamais; assay: Feeding deterrent activity against adult Sitophilus zeamais on compound pretreated wheat flour disks assessed as mortality at 3 ppm after 3 days by flour disk bioassay (reference value: 0%); type: functional
[6] = test system: Sitophilus zeamais; assay: Feeding deterrent activity against adult Sitophilus zeamais on compound pretreated wheat flour disks assessed as relative growth rate at 10 ppm after 3 days by flour disk bioassay (reference value: 13.61 +/-1.13 ug/mg/day); type: functional
[7] = test system: Tribolium castaneum; assay: Feeding deterrent activity against adult Tribolium castaneum (red flour beetle) on compound pre-treated wheat flour disks assessed as relative growth rate at 100 ppm after 3 days by flour disk bioassay (reference value: 29.49 +/-1.35 ug/mg/day); type: functional
[8] = test system: Tribolium castaneum; assay: Feeding deterrent activity against adult Tribolium castaneum (red flour beetle) on compound pre-treated wheat flour disks assessed as mortality at 30 ppm after 3 days by flour disk bioassay (reference value: 0%); type: functional
[9] = test system: Tribolium castaneum; assay: Feeding deterrent activity against adult Tribolium castaneum (red flour beetle) on compound pre-treated wheat flour disks assessed as relative food consumption rate at 3 ppm after 3 days by flour disk bioassay (reference value: 143.22 +/-4.32 ug/mg/day); type: functional
[10] = test system: Sitophilus zeamais; assay: Feeding deterrent activity against adult Sitophilus zeamais on compound pretreated wheat flour disks assessed as food utilization rate at 3 ppm after 3 days by flour disk bioassay (reference value: 11.09 +/-1.12%); type: functional
[11] = test system: Sitophilus zeamais; assay: Feeding deterrent activity against adult Sitophilus zeamais on compound pretreated wheat flour disks at 30 ppm after 3 days by flour disk bioassay; type: functional
[12] = test system: Sitophilus zeamais; assay: Feeding deterrent activity against adult Sitophilus zeamais on compound pretreated wheat flour disks at 3 ppm after 3 days by flour disk bioassay; type: functional
[13] = test system: Sitophilus zeamais; assay: Feeding deterrent activity against adult Sitophilus zeamais on compound pretreated wheat flour disks at 1000 ppm after 3 days by flour disk bioassay; type: functional
[14] = test system: Sitophilus zeamais; assay: Feeding deterrent activity against adult Sitophilus zeamais on compound pretreated wheat flour disks assessed as food utilization rate at 30 ppm after 3 days by flour disk bioassay (reference value: 11.09 +/-1.12%); type: functional
[15] = test system: Sitophilus zeamais; assay: Feeding deterrent activity against adult Sitophilus zeamais on compound pretreated wheat flour disks after 3 days by flour disk bioassay; type: functional, organism-based
[16] = test system: Tribolium castaneum; assay: Feeding deterrent activity against adult Tribolium castaneum (red flour beetle) on compound pre-treated wheat flour disks assessed as relative food consumption rate at 10 ppm after 3 days by flour disk bioassay (reference value: 143.22 +/-4.32 ug/mg/day); type: functional
[17] = test system: Tribolium castaneum; assay: Feeding deterrent activity against adult Tribolium castaneum (red flour beetle) on compound pre-treated wheat flour disks assessed as food utilization rate at 3 ppm after 3 days by flour disk bioassay (reference value: 20.59 +/-1.47%); type: functional
[18] = test system: Sitophilus zeamais; assay: Feeding deterrent activity against adult Sitophilus zeamais on compound pretreated wheat flour disks assessed as relative growth rate at 3 ppm after 3 days by flour disk bioassay (reference value: 13.61 +/-1.13 ug/mg/day); type: functional
[19] = test system: Tribolium castaneum; assay: Feeding deterrent activity against adult Tribolium castaneum (red flour beetle) on compound pre-treated wheat flour disks assessed as mortality at 3 ppm after 3 days by flour disk bioassay (reference value: 0%); type: functional
[20] = test system: Tribolium castaneum; assay: Feeding deterrent activity against adult Tribolium castaneum (red flour beetle) on compound pre-treated wheat flour disks at 10 ppm after 3 days by flour disk bioassay; type: functional
[21] = test system: Sitophilus zeamais; assay: Feeding deterrent activity against adult Sitophilus zeamais on compound pretreated wheat flour disks assessed as mortality at 300 ppm after 3 days by flour disk bioassay (reference value: 0%); type: functional
[22] = test system: Tribolium castaneum; assay: Feeding deterrent activity against adult Tribolium castaneum (red flour beetle) on compound pre-treated wheat flour disks assessed as mortality at 1000 ppm after 3 days by flour disk bioassay (reference value: 0%); type: functional
[23] = test system: Sitophilus zeamais; assay: Feeding deterrent activity against adult Sitophilus zeamais on compound pretreated wheat flour disks assessed as mortality at 1000 ppm after 3 days by flour disk bioassay (reference value: 0%); type: functional
[24] = test system: Tribolium castaneum; assay: Feeding deterrent activity against adult Tribolium castaneum (red flour beetle) on compound pre-treated wheat flour disks assessed as relative growth rate at 1000 ppm after 3 days by flour disk bioassay (reference value: 29.49 +/-1.35 ug/mg/day); type: functional
[25] = test system: Sitophilus zeamais; assay: Feeding deterrent activity against adult Sitophilus zeamais on compound pretreated wheat flour disks assessed as food utilization rate at 10 ppm after 3 days by flour disk bioassay (reference value: 11.09 +/-1.12%); type: functional
[26] = test system: Tribolium castaneum; assay: Feeding deterrent activity against adult Tribolium castaneum (red flour beetle) on compound pre-treated wheat flour disks assessed as food utilization rate at 10 ppm after 3 days by flour disk bioassay (reference value: 20.59 +/-1.47%); type: functional
[27] = test system: Sitophilus zeamais; assay: Feeding deterrent activity against adult Sitophilus zeamais on compound pretreated wheat flour disks assessed as relative growth rate at 100 ppm after 3 days by flour disk bioassay (reference value: 13.61 +/-1.13 ug/mg/day); type: functional

| Compound | mortality at 100 ppm [1] [%] | mortality at 10 ppm [2] [%] | ECI [3] [%] | Activity [4] [µg/mg/day] | mortality at 3 ppm [5] [%] | Activity [6] [µg/mg/day] | Activity [7] [µg/mg/day] | mortality at 30 ppm [8] [%] | Activity [9] [µg/mg/day] | ECI [10] [%] | FDI [11] [%] | FDI [12] [%] | FDI [13] [%] | ECI [14] [%] | EC50 [15] [ppm] | Activity [16] [µg/mg/day] | ECI [17] [%] | Activity [18] [µg/mg/day] | mortality at 3 ppm [19] [%] | FDI [20] [%] | further results |
| --- | --- | --- | --- | --- | --- | --- | --- | --- | --- | --- | --- | --- | --- | --- | --- | --- | --- | --- | --- | --- | --- |
| CCCCCCCc1cc(=O)c2ccccc2n1C [SCHINIFOLINE] | 0 | 0 | 16.5 | 114.13 | 0 | 12.25 | 6.17 | 0 | 139.51 | 11.21 | 26.69 | 1.47 | 92.15 | 10.07 | 85.63 | 119.29 | 20.68 | 13.72 | 0 | 18.64 | mortality at 300 ppm [21]: 6%; mortality at 1000 ppm [22]: 20%; mortality at 1000 ppm [23]: 16%; Activity [24]: 0.07 µg/mg/day; ECI [25]: 10.73%; ECI [26]: 20.32%; Activity [27]: 3.79 µg/mg/day |
| COc1ccc2c(OC)c3ccoc3nc2c1OC [SKIMMIANINE] | 0 | 0 | 15.12 | 112.77 | 0 | 12.03 | 8.49 | 0 | 137.89 | 10.98 | 26.12 | 3.53 | 82.43 | 10.34 | 129.72 | 124.71 | 20.25 | 13.27 | 0 | 13.21 | mortality at 300 ppm [21]: 4%; mortality at 1000 ppm [22]: 14%; mortality at 1000 ppm [23]: 10%; Activity [24]: 1.23 µg/mg/day; ECI [25]: 10.67%; ECI [26]: 19.41%; Activity [27]: 4.99 µg/mg/day |
